# Reference: patent US4721775A, “Effective peptides related to the luteinizing hormone releasing hormone from L-amino acids” (Board of Regents, The University of Texas System, priority 1985, dated 1988)
# “And” between values parts separate entries of the source, which are not always exact repeats. Identical values can stand only once. “Also recorded” adds a separate entry of the source.
# Assays:
# [1] = relative to LHRH; cited from earlier work
# [2] = system: release of FSH; test: Release of FSH in rats after sc injection; assay type: in vivo; details: release 60 min. after sc injection
# Excerpt: (§1) The data on the release of LH and FSH in rats by modifications of LHRH with one structural change are in Table II.
# (§2) Exclusive of the salmon-LHRH, only one of the six decapeptides with two structural changes had significant activity.
# [3] = system: release of LH; test: Release of LH in rats after sc injection; assay type: in vivo; details: for LH: release 60 min. after sc injection
# Excerpt: as §1, §2
# [4] = system: release of FSH; test: Release of FSH in rats after sc injection; assay type: in vivo; details: dose and time as stated in the source
# [5] = relative to LHRH; cited from earlier work; remark: listed apart in the source
# [6] = system: ovulation; details: 250 ng; rats; cited from earlier work
molecule,measurement,setting,value
"N=C(N)NCCC[C@H](NC(=O)[C@H](Cc1c[nH]c2ccccc12)NC(=O)CNC(=O)[C@H](Cc1ccc(O)cc1)NC(=O)[C@H](CO)NC(=O)[C@H](Cc1c[nH]c2ccccc12)NC(=O)[C@H](Cc1c[nH]cn1)NC(=O)[C@@H]1CCC(=O)N1)C(=O)N1CCC[C@H]1C(=O)NCC(N)=O [[Trp^7]--LHRH, p-Glu His Trp Ser Tyr Gly Trp Arg Pro Gly-NH2]",agonist activity in vivo,[1],80%
same,FSH,[2]; dosage of peptide 300 ng,543 ng/mL
same,FSH,[2]; dosage of peptide 3000 ng,1259 ng/mL
same,LH,[3]; dosage of peptide 300 ng,14.5 ng/mL
same,LH,[3]; dosage of peptide 3000 ng,115 ± 19 ng/mL and 115 ng/mL
same,release of LH compared with LHRH,"[3]; sc injection, dose and time as stated in the source",as active as LHRH at two dose levels; also recorded: equivalent to LHRH in the release of both LH and FSH
same,release of FSH compared with LHRH,[4],as active as LHRH; also recorded: equivalent to LHRH in the release of both LH and FSH
[3(2-Nal)^3 ]-LHRH,"agonist activity in vitro, as active as LHRH",[5],200%
"[Ala^9 ]-LHRH (QHWSYGLRAG; Gonadoliberin-1; UniProt P01148 24-33, looked up, variant P9A) [literature agonist analog of LHRH]","agonist activity in vitro, as active as LHRH",[5],65%
"[N-Ac-D-2-Nal^1, D-pClPhe^2, D-3-Pal^3, D-Arg^6, Trp^7, D-Ala10 ]-LHRH",antiovulatory activity,[6],ca. 90%
[N-MeLeu^7 ]-LHRH,"agonist activity in vitro, as active as LHRH",[5],100%
"[Phe^5 ]-LHRH (QHWSFGLRPG; Gonadoliberin-1; UniProt P01148 24-33, looked up, variant Y5F) [literature agonist analog of LHRH, reference compound]",agonist activity in vivo,[1],64%
